# Assay results: ChEMBL document CHEMBL2429722, “Synthesis of the non-peptidic snail toxin 6-bromo-2-mercaptotryptamine dimer (BrMT)(2), its lower and higher thio homologs and their ability to modulate potassium ion channels” (Bioorg Med Chem Lett, 2013)
# Legend:
# Assay type in all cases: cell-based
# Settings in all cases: Oocyte
# [1] = target: Potassium voltage-gated channel subfamily A member 1 (Mus musculus) (UniProt P16388); test: Inhibition of mouse Kv1.1 channel expressed in Xenopus laevis oocytes assessed as reduction of current amplitude at 15 uM after 2 mins by two-electrode voltage clamp assay relative to control
# Sequence of Potassium voltage-gated channel subfamily A member 1 (Mus musculus) (P16388 whole entry): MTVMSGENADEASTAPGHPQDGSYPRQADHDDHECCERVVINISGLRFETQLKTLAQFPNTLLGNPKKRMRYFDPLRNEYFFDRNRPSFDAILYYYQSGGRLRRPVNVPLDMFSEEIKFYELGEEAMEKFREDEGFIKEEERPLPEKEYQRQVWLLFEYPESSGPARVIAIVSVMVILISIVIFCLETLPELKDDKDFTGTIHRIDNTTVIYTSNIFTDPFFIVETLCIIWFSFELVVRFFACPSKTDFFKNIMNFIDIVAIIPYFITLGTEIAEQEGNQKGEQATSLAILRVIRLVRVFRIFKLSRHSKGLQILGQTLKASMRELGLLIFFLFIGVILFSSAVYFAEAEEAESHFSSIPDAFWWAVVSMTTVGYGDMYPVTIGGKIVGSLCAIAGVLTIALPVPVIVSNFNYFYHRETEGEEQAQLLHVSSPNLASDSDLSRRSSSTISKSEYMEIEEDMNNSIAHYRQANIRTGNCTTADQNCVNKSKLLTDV
# [2] = target: Potassium voltage-gated channel subfamily A member 1 (Mus musculus) (UniProt P16388); test: Inhibition of mouse Kv1.1 channel expressed in Xenopus laevis oocytes assessed as reduction of current amplitude at 8 uM after 2 mins by two-electrode voltage clamp assay relative to control
# [3] = target: Potassium voltage-gated channel subfamily A member 1 (Mus musculus) (UniProt P16388); test: Inhibition of mouse Kv1.1 channel expressed in Xenopus laevis oocytes assessed as -50 mV current-induced channel closing time at 15 uM after 2 mins by two-electrode voltage clamp assay (reference value: 14.6 +/- 0.3 ms)
# [4] = target: Potassium voltage-gated channel subfamily A member 1 (Mus musculus) (UniProt P16388); test: Inhibition of mouse Kv1.1 channel expressed in Xenopus laevis oocytes assessed as -50 mV current-induced channel closing time at 8 uM after 2 mins by two-electrode voltage clamp assay (reference value: 14.6 +/- 0.3 ms)
# [5] = target: Potassium voltage-gated channel subfamily A member 1 (Mus musculus) (UniProt P16388); test: Inhibition of mouse Kv1.1 channel expressed in Xenopus laevis oocytes assessed as decrease in +60 mV current-induced time constant of activation at 15 uM after 2 mins by two-electrode voltage clamp assay relative to control
# [6] = target: Potassium voltage-gated channel subfamily A member 1 (Mus musculus) (UniProt P16388); test: Inhibition of mouse Kv1.1 channel expressed in Xenopus laevis oocytes assessed as decrease in +60 mV current-induced time constant of activation at 8 uM after 2 mins by two-electrode voltage clamp assay relative to control
# [7] = target: Potassium voltage-gated channel subfamily A member 1 (Mus musculus) (UniProt P16388); test: Inhibition of mouse Kv1.1 channel expressed in Xenopus laevis oocytes assessed as reduction of current amplitude at 20 uM after 2 mins by two-electrode voltage clamp assay relative to control
# [8] = target: Potassium voltage-gated channel subfamily A member 1 (Mus musculus) (UniProt P16388); test: Inhibition of mouse Kv1.1 channel expressed in Xenopus laevis oocytes assessed as -50 mV current-induced channel closing time at 20 uM after 2 mins by two-electrode voltage clamp assay (reference value: 14.6 +/- 0.3 ms)
# [9] = target: Potassium voltage-gated channel subfamily A member 1 (Mus musculus) (UniProt P16388); test: Inhibition of mouse Kv1.1 channel expressed in Xenopus laevis oocytes assessed as decrease in +60 mV current-induced time constant of activation at 20 uM after 2 mins by two-electrode voltage clamp assay relative to control
SMILES,fold change (FC) [1],inhibition [2] [%],TIME [3] [h],TIME [4] [h],fold change (FC) [5],fold change (FC) [6],fold change (FC) [7],TIME [8] [h],fold change (FC) [9]
NCCc1c(SSc2[nH]c3cc(Br)ccc3c2CCN)[nH]c2cc(Br)ccc12,0.69,15,3.81e-06,4.94e-06,5,3,,,
NCCc1c(Sc2[nH]c3cc(Br)ccc3c2CCN)[nH]c2cc(Br)ccc12,,,,,,,0.59,9.28e-06,5
NCCc1c(SSSc2[nH]c3cc(Br)ccc3c2CCN)[nH]c2cc(Br)ccc12,,35,,4.06e-06,,3,,,
